The values that follow come from PMC6934184, “Selective DNA-PKcs inhibition extends the therapeutic index of localized radiotherapy and chemotherapy” (The Journal of Clinical Investigation, 2019).

The structures appear in SMILES notation.

In general, inhibition refers to the drop in the measured response relative to a control, in per cent.

The target in the test is T1, CSNK1G1 (CK1 gamma 1) (Homo sapiens, UniProt Q9HCP0).
T1 construct: purchased Thermo Fisher Scientific (Life Technologies) SelectScreen
Briefly: SelectScreen Z'LYTE. Format: biochemical. The gist of the method: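 SelectScreen broad panel; activity (Z'LYTE, Adapta) plus binding formats. ATP: Km app for CSF1R Z'LYTE; 10 for CAMK1 Adapta. Readout = % per kinase.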

T1 sequence (Q9HCP0 whole entry): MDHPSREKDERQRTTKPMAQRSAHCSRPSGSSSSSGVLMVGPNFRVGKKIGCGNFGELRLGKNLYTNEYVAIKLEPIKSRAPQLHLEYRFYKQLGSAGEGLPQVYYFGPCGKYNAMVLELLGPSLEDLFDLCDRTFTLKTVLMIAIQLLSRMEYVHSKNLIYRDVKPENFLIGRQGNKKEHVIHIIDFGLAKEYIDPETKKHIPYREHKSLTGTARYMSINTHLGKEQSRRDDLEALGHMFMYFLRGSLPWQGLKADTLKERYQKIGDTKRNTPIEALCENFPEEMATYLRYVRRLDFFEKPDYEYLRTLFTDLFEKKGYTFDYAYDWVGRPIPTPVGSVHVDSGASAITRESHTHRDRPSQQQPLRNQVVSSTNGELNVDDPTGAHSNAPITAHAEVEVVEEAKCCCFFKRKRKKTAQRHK

For `CN(C(=O)CN1CCOCC1)c1ccc2sc3c(-c4cccc5c(=O)cc(N6CC7CCC(C6)O7)oc45)cccc3c2c1` [NU5455], the inhibition at 1 µM was -9.9%.
